For two compounds, IC50 and inhibition results are on record in patent US9700632B2, “Dendrimers, conjugates and methods thereof” (Centre for BioSeparation Technology—VIT, priority 2012, dated 2017).

As usually defined, the IC50 is the concentration needed to halve the response being measured. One may read the inhibition as the relative decrease from the control value, in per cent.

The subject of experiment [1] is HCT-15 human colon cancer cells. The experiment in a line: cells. Particulars: HCT-15, 48 h, read-out: IC50 HCT-15.
Procedure: Cells are incubated for 48 hr with different equivalent doxorubicin concentrations and IC50 values in terms of doxorubicin were calculated using MTT assay.
Experiment [2] has as its system PC3 prostate cancer cells. The experiment in a line: cells. The conditions noted are these: Homo sapiens, PC-3, 48 h, read-out: IC50 PC3.
In a further experiment the test system is PC3 cells. The experiment in a line: MTT cytotoxicity assay of lupeol and dendrimer-lupeol conjugates. Particulars: Homo sapiens, PC-3, 48 h, read-out: percentage inhibition (cytotoxic effect, MTT). It counts as cell-based. As to the method:
Human prostate cancer cells (PC-3 cells) are obtained from NCCS, Pune, India. The cells are grown in RPMI 1640 medium supplemented with 10% of bovine fetal serum and antibiotics (100 IU of penicillin/[…] of streptomycin). The cells are maintained in a 25 cm^2 T-flask and incubated at 37° C. under 5% CO2 in a humidified atmosphere. The cell viability is measured by staining the cells with trypan blue and counted in a haemocytometer under a light microscope.
The assay is performed in triplicates.
The cytotoxicity is quantitatively estimated by a non-radioactive, colorimetric assay system using a tetrazolium salt, 3-[4,5-dimethylthiazol-2-yl]-2,5-diphenil-tetrazolium bromide (MTT).
The cytotoxic effect of lupeol and the dendrimer lupeol conjugate is determined using PC3 cells. […] Doxorubicin is used as positive control for each experiment. […] This clearly showcases that the increase in cytotoxic activity of the dendrimer-lupeol conjugate is not due to the dendrimer or lupeol alone but because of the conjugate of dendrimer and lupeol.
In general terms: Formazan colour is commonly taken as a measure of viable cells.

Molecules are shown by their SMILES. Values after ≈ are worked out from the molar mass of the structure shown.

`COc1cccc2c1C(=O)c1c(O)c3c(c(O)c1C2=O)C[C@@](O)(C(=O)CO)C[C@@H]3O[C@H]1C[C@H](N)[C@H](O)[C@H](C)O1` [Free doxorubicin, doxorubicin]: the IC50 came out at 4.77 µg/mL (≈ 8.78 µM) in experiment [1] and 5.13 µg/mL (≈ 9.45 µM) in experiment [2]. `C=C(C)[C@@H]1CC[C@]2(C)CC[C@]3(C)[C@H](CC[C@@H]4[C@@]5(C)CC[C@H](O)C(C)(C)[C@@H]5CC[C@]43C)[C@@H]12` [free lupeol, lupeol]: the inhibition at 10 µg/mL in the experiment with PC3 cells amounted to 7.74%.
